Reference: patent US11116736B2, “2-amino-N'-benzylideneacetohydrazides and derivatives for the management of CFTR protein mediated diseases” (Emory University, priority 2015, dated 2021)
Like-named read-outs stand apart in the source and are kept apart here.

Columns and labels:
WT-hCFTR [1] = target: T1, WT-hCFTR (Homo sapiens, UniProt P13569); experiment: Two-electrode voltage clamp (TEVC) on wildtype hCFTR expressed in Xenopus oocytes; assay type: cell-based; details: for effect on hCFTR current (block / potentiation), in words / Kd: ~50 s extracellular exposure; for Kd: VM=−60 mV
T1 construct: expressed in transfected cells; host or cells: Xenopus laevis oocytes injected with cRNA (pGEMHE construct from Dr. D. Gadsby)
Protocol: The effects of OSSK-2 and OSSK-3 on hCFTR were tested by expression in Xenopus oocytes. Representative current traces using the two-electrode voltage clamp technique (TEVC) are shown in FIGS. 2A and 2B for OSSK-3 and FIG. 2C for OSSK-2.
(§1) Human CFTR cRNAs used in electrophysiology experiments were prepared from constructs encoding WT-hCFTR in the pGEMHE vector (hCFTR/pGEMHE kindly provided by Dr. D. Gadsby, Rockefeller University). The mutants of hCFTR used in this study were prepared using site-directed mutagenesis with the Quikchange protocol (Stratagene, La Jolla, Calif.) and mutant constructs were verified by sequencing across the entire open reading frame before use. Xenopus laevis oocytes were injected with 0.4-10 ng of CFTR cRNAs, and were incubated at 17° C. in modified Liebovitz's L-15 media with the addition of HEPES (pH 7.5), penicillin, and streptomycin. Recordings were made typically 24-96 hours after the injection of cRNAs.
(§2) Standard two-electrode voltage clamp (TEVC) techniques were used to study the effects of chemicals with application of reagents to the extracellular bath. Each oocyte was injected with CFTR cRNA along with cRNA encoding the beta2-adrenergic receptor (β2AR). Electrode resistances measured 0.5-1.4 MΩ when filled with 3 M KCl and measured in standard ND96 bath solution that contained (in mM): 96 NaCl, 2 KCl, 1 MgCl2, and 5 HEPES (pH 7.5). CFTR channels were activated by exposure to 10 μM isoproterenol (ISO) in ND 96 and alternatively assayed in the presence or absence of different concentrations of compounds in the bath solution, typically in the continuing presence of ISO. Currents were acquired with an Axoclamp 900A amplifier and Clampex 10.2 software, and current data were digitized at 2 kHz.

F508del-hCFTR = target: T2, F508del-hCFTR (Homo sapiens, UniProt P13569, DEL508-508); experiment: Two-electrode voltage clamp (TEVC) on F508del-hCFTR expressed in Xenopus oocytes; assay type: cell-based; details: for potentiation of F508del-hCFTR, summary in words: FIGS. 4A and 4B under modified conditions
T2 construct: expressed in transfected cells; host or cells: Xenopus laevis oocytes injected with cRNA; The mutant was made by Quikchange mutagenesis of hCFTR/pGEMHE
Protocol: Nearly 90% of CF patients in the United States bear at least one F508del-CFTR allele; OSSK-3, and OSSK-2 were studied on F508del-hCFTR using the TEVC technique at VM=−60 mV.
as §1, §2

WT-hCFTR [2] = target: T1, WT-hCFTR; details: cited from earlier work
multiple CFTR mutations = details: cited from earlier work

T1 sequence (P13569 whole entry): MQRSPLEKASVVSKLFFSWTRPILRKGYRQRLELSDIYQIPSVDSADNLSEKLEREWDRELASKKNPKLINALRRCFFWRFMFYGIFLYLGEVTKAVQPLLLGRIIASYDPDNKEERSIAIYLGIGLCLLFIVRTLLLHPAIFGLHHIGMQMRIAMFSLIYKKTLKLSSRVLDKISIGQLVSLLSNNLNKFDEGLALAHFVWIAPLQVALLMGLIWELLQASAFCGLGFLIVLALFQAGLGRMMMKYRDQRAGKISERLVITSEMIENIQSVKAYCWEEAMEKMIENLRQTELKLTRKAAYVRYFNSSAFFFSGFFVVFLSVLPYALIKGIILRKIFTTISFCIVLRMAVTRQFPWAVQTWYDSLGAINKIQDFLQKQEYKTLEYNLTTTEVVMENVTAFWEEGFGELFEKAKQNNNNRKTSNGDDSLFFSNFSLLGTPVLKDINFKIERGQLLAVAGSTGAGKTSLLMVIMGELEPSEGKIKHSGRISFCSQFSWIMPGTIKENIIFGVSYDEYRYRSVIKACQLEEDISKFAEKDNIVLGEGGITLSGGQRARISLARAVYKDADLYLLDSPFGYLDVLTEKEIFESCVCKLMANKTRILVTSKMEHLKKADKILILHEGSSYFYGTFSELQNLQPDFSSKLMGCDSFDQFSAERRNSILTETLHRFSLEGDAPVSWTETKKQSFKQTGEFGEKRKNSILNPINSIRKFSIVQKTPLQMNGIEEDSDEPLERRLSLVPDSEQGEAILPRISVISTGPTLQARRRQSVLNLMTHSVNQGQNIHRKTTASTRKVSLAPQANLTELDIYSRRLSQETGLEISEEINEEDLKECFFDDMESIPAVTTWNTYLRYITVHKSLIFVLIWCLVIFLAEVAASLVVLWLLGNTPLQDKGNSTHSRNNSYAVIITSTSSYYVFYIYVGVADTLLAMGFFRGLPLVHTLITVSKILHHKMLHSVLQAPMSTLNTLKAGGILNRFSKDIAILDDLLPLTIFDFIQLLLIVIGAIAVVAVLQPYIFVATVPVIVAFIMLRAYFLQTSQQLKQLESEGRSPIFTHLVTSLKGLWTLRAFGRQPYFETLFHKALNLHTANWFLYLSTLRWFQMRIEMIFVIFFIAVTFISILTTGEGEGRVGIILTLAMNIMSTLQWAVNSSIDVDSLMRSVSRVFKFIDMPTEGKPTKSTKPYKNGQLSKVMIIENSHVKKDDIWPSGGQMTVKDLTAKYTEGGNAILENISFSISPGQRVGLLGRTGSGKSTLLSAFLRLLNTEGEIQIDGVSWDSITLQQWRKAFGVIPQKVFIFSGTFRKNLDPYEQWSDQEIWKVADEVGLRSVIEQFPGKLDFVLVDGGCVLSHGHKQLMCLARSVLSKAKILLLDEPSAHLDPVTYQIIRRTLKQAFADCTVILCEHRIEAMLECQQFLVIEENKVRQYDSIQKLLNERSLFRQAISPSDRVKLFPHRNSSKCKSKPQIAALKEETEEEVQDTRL
T2 sequence (P13569 with tags, fused parts or gaps DEL508-508): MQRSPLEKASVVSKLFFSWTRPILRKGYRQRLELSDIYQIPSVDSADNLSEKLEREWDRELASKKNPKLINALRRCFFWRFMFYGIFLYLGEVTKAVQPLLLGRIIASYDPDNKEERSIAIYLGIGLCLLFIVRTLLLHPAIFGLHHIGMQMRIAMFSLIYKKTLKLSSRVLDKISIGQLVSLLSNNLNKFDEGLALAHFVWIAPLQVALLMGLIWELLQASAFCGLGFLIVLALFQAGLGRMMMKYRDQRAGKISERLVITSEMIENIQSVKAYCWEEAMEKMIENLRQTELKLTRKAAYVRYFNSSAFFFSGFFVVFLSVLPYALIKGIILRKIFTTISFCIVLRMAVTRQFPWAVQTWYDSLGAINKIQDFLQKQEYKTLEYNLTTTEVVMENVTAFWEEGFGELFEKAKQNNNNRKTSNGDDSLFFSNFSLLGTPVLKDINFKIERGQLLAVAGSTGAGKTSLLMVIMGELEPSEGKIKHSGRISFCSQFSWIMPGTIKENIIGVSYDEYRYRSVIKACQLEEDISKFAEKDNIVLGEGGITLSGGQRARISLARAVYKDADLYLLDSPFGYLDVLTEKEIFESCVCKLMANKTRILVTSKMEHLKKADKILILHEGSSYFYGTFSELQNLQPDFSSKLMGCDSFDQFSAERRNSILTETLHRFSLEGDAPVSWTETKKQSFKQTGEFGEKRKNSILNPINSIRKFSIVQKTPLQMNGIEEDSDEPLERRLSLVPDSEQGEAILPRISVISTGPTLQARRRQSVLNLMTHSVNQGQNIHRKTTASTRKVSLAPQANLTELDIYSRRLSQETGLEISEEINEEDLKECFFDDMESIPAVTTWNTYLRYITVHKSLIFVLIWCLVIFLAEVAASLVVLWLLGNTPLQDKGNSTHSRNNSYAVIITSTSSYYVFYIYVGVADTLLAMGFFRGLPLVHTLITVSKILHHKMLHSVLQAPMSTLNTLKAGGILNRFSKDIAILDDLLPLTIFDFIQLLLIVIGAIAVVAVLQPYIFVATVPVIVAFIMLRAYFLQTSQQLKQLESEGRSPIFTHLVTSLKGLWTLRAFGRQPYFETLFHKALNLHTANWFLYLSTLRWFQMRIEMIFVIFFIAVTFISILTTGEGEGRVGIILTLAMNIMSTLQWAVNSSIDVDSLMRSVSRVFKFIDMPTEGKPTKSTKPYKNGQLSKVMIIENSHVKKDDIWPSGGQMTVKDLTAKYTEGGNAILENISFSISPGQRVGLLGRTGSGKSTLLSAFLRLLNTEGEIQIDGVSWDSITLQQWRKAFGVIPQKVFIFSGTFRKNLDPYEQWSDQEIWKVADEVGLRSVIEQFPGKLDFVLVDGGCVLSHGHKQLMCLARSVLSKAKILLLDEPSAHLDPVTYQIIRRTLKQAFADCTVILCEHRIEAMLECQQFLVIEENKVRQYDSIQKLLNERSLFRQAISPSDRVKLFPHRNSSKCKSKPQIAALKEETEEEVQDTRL

With `Cc1cccc(NCC(=O)N/N=C/c2cc(Br)c(O)c(Br)c2O)c1` [OSSK-2, (E)-N′-(3,5-dibromo-2,4-dihydroxybenzylidene)-2-(m-tolylamino)acetohydrazide] the “potentiation of WT-hCFTR, summary in words” value (WT-hCFTR [1]) was “mildly potentiate WT-hCFTR”, the “effect on hCFTR current (block / potentiation), in words” value (WT-hCFTR [1]) was “very weak block on hCFTR without obvious potentiation” and the “potentiation of F508del-hCFTR, summary in words” value (F508del-hCFTR) was “very strongly potentiate F508del-hCFTR”.

For `CC(C)(C)c1cc(C(C)(C)C)c(NC(=O)c2c[nH]c3ccccc3c2=O)cc1O` [VX-770, ivacaftor], the “potentiation of WT-hCFTR, in words” value (WT-hCFTR [2]) is given as “only mildly potentiates WT-hCFTR” and the “potentiation of mutant CFTR, in words” value (multiple CFTR mutations) is given as “strongly potentiates multiple CFTR mutations”.

In the case of `Cc1ccc(NCC(=O)N/N=C/c2cc(Br)c(O)c(Br)c2O)cc1` [OSSK-3, (E)-N′-(3,5-dibromo-2,4-dihydroxybenzylidene)-2-(p-tolylamino)acetohydrazide], the “potentiation of WT-hCFTR, summary in words” value (WT-hCFTR [1]) is reported as “mildly potentiate WT-hCFTR”, the Kd (WT-hCFTR [1]; read-out: apparent Kd for block of hCFTR) is reported as 33 µM and the Kd (WT-hCFTR [1]; read-out: apparent Kd for potentiation of hCFTR) is reported as 0.0317 µM. For the same compound, the “effect on hCFTR current (block / potentiation), in words” value (WT-hCFTR [1]) was “both block as well as potentiation of hCFTR”, the “potentiation of F508del-hCFTR, summary in words” value (F508del-hCFTR) was “very strongly potentiate F508del-hCFTR” and the “effect on F508del-hCFTR current (block / potentiation), in words” value (F508del-hCFTR; VM=−60 mV, 5 μM, ~50 s extracellular exposure) was “very weak initial block that was followed by significantly stronger potentiation compared to the potentiation of WT-hCFTR”.
